One compound from ChEMBL document CHEMBL6153074, “Discovery of novel dual tubulin and MMPs inhibitors for the treatment of lung cancer and overcoming drug resistance” (Eur J Med Chem, 2025) can be followed below.

The source made the active and inactive calls. The rule behind the calls is not given here.

Data set [1] concerns A549. Description: Induction of cell cycle arrest in human A549 cells assessed as decrease in cdc2 by Western blot analysis. The data set is classed as functional, cell-based.
Data set [2] is described as follows: Stability of compound in DMEM containing 1 percent DMF at pH 7.4 measured for 24 to 72 hrs. It is filed as physicochemical. As to conditions: buffer, time 24-72 hrs.
For data set [3], the system named is A549. Description: Induction of apoptosis in human A549 cells assessed as increase in cleaved caspase-3 level at 0.5 uM incubated for 24 hrs by Western blot analysis. It is filed as functional, cell-based.
Data set [4] deals with A549. Kind of data set: Induction of cell cycle arrest in human A549 cells assessed as decrease in cyclin B1 by Western blot analysis. It is filed as functional, cell-based.
Data set [5] is described as follows: Toxicity in BALB/c mouse xenografted with human A549 cells assessed as effect on heart at 10 to 20 mg/kg, ip for 3 weeks administered on every 2 days by H and E staining based analysis. The conditions noted are these: in vivo, 504 h, dose 10-20 mg/kg. The data set is classed as organism-based.
The subject of data set [6] is A549. Kind of data set: Induction of cell cycle arrest in human A549 cells assessed as accumulation at G1 phase at 0.25 uM incubated for 24 hrs by PI staining based flow cytometry (reference value: 58.67 %). The data set is classed as functional.
In data set [7] the test system is A549. Description: Antitumor activity against human A549 cells xenografted in BALB/c mouse at 10 mg/kg, ip for 3 weeks administered on every 2 days relative to control. The conditions noted are these: A549, 504 h, read-out: TGI. The data set is classed as functional.
For data set [8], the system named is A549. Description: Induction of apoptosis in human A549 cells assessed as viable cells at 0.5 uM incubated for 24 hrs by Annexin V-FITC/PI staining based flow cytometry (reference value: 95.82 %). The data set is classed as functional. As to conditions: read-out: Activity.
Data set [9] deals with A549. Description: Induction of intracellular ROS accumulation in human A549 cells at 0.25 uM incubated for 24 hrs by DCFH-DA dye based flow cytometry (reference value: 4.96 %). The data set is classed as functional.
The test system of data set [10] is A549. Kind of data set: Anti-migration activity in human A549 cells assessed as migration rate at 0.25 uM incubated for 24 hrs by wound healing assay (reference value: 73.94 %). The data set is classed as functional.
Data set [11] concerns A549. Kind of data set: Downregulation of IKK-beta phosphorylation in TNF-alpha-treated human A549 cells by Western blot analysis. It is filed as functional, cell-based.
Data set [12] has as its system A549. Kind of data set: Anti-angiogenesis effect in human A549 cells assessed as disruption of tube-like network formation at 0.25 to 0.5 uM incubated for 6 hrs by tube formation assay. The data set is classed as functional, cell-based. The conditions noted are these: dose 0.25-0.5 µM.
A further data set relates to MDA-MB-231. Kind of data set: Antiproliferative activity against human MDA-MB-231 cells by CCK8 assay.
Data set [13] deals with A549. Description: Downregulation of NF-kappaB p65 phosphorylation in TNF-alpha-treated human A549 cells by Western blot analysis. The data set is classed as functional, cell-based.
The target of another data set is Stromelysin-1 (Homo sapiens, UniProt P08254). Kind of data set: Inhibition of MMP-3 (unknown origin) using fluorogenic-McaPro-Leu-Gly-Leu-Dpa-Ala-Arg-NH2 as substrate.
Data set [14] has as its system A549. Description: Induction of apoptosis in human A549 cells assessed as early apoptotic cells at 0.5 uM incubated for 24 hrs by Annexin V-FITC/PI staining based flow cytometry (reference value: 3.04 %). It is filed as functional.
Data set [15] has as its system A549. Description: Induction of apoptosis in human A549 cells assessed as necrotic cells at 0.5 uM incubated for 24 hrs by Annexin V-FITC/PI staining based flow cytometry (reference value: 0.13 %). It is filed as functional.

Chain of Stromelysin-1 (P08254 whole entry): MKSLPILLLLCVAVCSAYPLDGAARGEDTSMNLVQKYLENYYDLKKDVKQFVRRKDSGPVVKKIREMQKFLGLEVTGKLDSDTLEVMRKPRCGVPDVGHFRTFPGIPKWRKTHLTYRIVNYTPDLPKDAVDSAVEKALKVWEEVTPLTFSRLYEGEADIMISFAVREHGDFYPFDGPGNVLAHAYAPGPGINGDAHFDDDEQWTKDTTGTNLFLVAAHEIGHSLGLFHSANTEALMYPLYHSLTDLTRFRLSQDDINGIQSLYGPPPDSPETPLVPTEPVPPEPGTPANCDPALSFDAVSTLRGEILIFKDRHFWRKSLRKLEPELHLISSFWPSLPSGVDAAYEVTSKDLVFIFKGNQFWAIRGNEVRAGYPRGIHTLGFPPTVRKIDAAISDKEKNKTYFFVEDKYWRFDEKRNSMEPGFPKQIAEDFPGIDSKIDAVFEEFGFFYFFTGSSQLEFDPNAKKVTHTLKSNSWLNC

For the compound `CCOP(=O)(OCC)C(Nc1ccc(CC(=O)Oc2cc(/C=C/C(=O)c3cc(OC)c(OC)c(OC)c3)ccc2OC)cc1)c1cccc([N+](=O)[O-])c1` (configuration not stated), the result in the data set on A549 [1], with A549 [3], in the data set with A549 [4], in the data set with A549 [11], in the data set on A549 [12] and in the data set on A549 [13] was Active. The Stability entry in data set [2] is reported as “Stable”. Besides, the Activity result in data set [5] is on record as “Non-toxic”; in the data set with A549 [6] it was 42.09%; in the data set on A549 [9] it was 36.07%; in the data set on A549 [10], 62.35%; in the data set with A549 [14] it was 34.86%; in the data set with A549 [15] it was 0.93%. Moreover, in the data set with A549 [7], the inhibition in vivo at 10 mg/kg is 53.3%. The viability at 0.5 µM in the data set on A549 [8] worked out at 57.9%. The IC50 in the data set with MDA-MB-231 amounted to 0.296 µM; against Stromelysin-1, 36.5 µM.
